Reference: patent US12441733B2, “Substituted 2,4-dioxotetrahydropyrimidines as intermediates in the synthesis of bruton's tyrosine kinase inhibitors” (Novartis AG, priority 2018, dated 2025)

Biological target: T1, BTK(C481S)-GFP (Homo sapiens, UniProt Q06187+Q96SW2, C481S)
T1 construct: CHYSEL (cis-acting hydrolase element, 2A) remnant after GFP; mCherry is split off as a separate protein (C); expressed in transfected cells; host or cells: TMD8 cells, lentiviral transduction with pLenti6-BTK(C481S)-GFP-CHYSEL-mCherry
T1 sequence (Q06187 whole entry C481S): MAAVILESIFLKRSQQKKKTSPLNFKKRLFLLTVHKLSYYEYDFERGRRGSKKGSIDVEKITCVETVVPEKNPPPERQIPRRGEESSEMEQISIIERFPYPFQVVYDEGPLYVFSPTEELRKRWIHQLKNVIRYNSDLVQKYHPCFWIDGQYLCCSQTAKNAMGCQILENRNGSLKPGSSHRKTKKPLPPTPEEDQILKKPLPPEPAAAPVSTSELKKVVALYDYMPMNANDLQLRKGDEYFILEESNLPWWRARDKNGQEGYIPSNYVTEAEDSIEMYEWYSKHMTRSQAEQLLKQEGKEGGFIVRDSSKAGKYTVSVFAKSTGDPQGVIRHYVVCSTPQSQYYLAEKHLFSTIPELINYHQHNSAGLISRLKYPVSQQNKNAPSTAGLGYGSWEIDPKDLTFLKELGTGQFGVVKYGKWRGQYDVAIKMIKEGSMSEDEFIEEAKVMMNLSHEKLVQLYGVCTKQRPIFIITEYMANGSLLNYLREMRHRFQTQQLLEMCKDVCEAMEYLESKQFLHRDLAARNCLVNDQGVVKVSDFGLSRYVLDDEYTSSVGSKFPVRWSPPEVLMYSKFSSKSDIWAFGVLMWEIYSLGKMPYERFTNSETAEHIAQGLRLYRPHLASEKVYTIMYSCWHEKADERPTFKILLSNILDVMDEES
T1 sequence (Q96SW2 whole entry): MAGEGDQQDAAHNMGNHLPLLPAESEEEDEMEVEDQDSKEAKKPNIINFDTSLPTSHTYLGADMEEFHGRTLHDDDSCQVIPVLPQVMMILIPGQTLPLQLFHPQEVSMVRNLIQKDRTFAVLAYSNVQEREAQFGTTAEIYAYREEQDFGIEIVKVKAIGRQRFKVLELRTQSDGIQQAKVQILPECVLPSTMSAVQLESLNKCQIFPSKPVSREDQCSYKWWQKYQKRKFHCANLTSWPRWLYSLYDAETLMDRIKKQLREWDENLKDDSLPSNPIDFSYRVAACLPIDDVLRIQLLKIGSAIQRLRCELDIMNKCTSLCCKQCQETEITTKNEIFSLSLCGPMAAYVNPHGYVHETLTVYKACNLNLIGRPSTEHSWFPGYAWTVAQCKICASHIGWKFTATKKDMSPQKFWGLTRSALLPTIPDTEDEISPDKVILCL
T1 sequence (Q16531 whole entry partner): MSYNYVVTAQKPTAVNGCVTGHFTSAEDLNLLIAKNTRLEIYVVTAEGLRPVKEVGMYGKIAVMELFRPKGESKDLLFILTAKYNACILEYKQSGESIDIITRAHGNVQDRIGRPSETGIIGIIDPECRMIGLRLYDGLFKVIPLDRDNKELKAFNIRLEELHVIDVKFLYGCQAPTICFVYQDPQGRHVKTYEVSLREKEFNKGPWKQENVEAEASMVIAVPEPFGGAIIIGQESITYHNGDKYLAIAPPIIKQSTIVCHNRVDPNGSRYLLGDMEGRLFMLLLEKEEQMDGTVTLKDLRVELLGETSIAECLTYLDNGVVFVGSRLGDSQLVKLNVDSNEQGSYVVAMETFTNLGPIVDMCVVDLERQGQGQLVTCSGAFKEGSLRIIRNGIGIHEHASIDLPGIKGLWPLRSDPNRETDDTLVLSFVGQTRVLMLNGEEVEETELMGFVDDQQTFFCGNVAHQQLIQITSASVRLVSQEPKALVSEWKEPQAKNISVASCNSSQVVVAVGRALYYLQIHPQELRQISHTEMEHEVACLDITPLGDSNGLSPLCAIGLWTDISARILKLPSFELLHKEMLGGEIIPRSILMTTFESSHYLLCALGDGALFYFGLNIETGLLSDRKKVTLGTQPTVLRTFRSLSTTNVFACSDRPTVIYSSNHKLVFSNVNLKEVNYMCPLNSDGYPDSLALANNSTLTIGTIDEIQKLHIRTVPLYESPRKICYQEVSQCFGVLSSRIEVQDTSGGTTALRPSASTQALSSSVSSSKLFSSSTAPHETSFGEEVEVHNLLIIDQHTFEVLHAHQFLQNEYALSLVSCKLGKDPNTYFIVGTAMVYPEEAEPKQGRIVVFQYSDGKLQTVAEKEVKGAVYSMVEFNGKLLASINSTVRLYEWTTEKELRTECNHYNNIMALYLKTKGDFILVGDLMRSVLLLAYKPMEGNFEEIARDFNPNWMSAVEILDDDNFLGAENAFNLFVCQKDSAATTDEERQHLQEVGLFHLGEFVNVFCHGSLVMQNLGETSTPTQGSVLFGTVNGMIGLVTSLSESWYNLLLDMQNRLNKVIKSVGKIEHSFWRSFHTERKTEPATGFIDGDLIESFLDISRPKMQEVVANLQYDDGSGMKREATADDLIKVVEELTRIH
Test: BTK(C481S)-GFP protein abundance flow cytometry assay in TMD8 cells
Type: cell-based
Details: TMD8 cells expressing BTK(C481S)-GFP; for DC50: GFP signal by flow cytometry; for BTK (C481S) Amax: % protein remaining at maximum degradation
Procedure: Compounds of the invention were tested in the following cellular assays. The terms in Table 2 are defined as follows: DC50 refers to the concentration at which 50% maximal degradation was observed; deg Amax is the extent of degradation and the value refers to the % protein remaining at the concentration at which maximum degradation is seen; ProI GI50 refers to the proliferation data and defines the concentration at which 50% growth inhibition was observed compared to the vehicle treated control at the end of the incubation time. TMD8 cells are BTK dependent and OCI-LY3 cells are BTK independent.
Btk(C481S)-GFP Protein Abundance Flow Cytometry Assay in TMD8 Cells:
Degradation of BTK(C481S) was measured in TMD8 cells expressing BTK(C481S)-GFP and mCherry from a stably integrated second generation bicistronic BTK(C481S)-GFP-CHYSEL-mCherry construct. Reduction of the […] measured by flow cytometry served as readout for BTK(C481S) degradation after degrader treatment.
Cloning of the pLenti6-BTK(C481)-GFP-CHYSEL-mCherry Sensor Vectors
The BTK(C481 S) protein abundance sensor is based on a second generation bicistronic construct, where the 2 reading frames BTK(C481S) and mCherry control are separated by a cis-acting hydrolase element (see: Lo et al., 2015 Cell Reports 13, 2634), replacing the Ires from the first generation vector described before.
The bicistronic BTK(C481S)-GFP-CHYSEL-mCherry construct is based on a pLenti6-DEST vector backbone where a GFP-CHYSEL-mCherry cassette was synthesized and inserted downstream of the DEST cassette by Gibson assembly resulting in the new gateway compatible vector pLenti6-DEST-GFP-CHYSEL-mCherry to allow Gateway cloning with pENTR221-BTK(C48S)(STOP-Leu) to obtain the final sensor construct pLenti6-BTK(C481S)-GFP-CHYSEL-mCherry. The pENTR221-BTK(C481S)(STOP-Leu) was generated by mutating wild-type BTK to BTK(C481S) with a mutagenesis reaction on pENTR221-BTK (STOP-Leu) with the following primers (BTK C481S Quikchange fw, gagtacatggccaatggctCcctcctgaactacctgagg (SEQ ID NO: 7); BTK C481S Quikchange REVC, cctcaggtagttcaggaggGagccattggccatgtactc (SEQ ID NO: 8)) using the QuikChange Lightning mutagenesis kit (Agilent Technologies #210518) performed according to the manufacturer's manual, resulting in pENTR221-BTK(C481S)(STOP-Leu).
Sequence of the synthesized construct (Xho1 sites are shown in bold, mCherry-ORF is shown in small letters):
Engineering of Stably Expressing TMD8 BTK(C481 S-GFP-CHYSEL-mCherry Sensor Cells
TMD8 BTK(C481S)-GFP-CHYSEL-mCherry sensor cells were generated by lentiviral vector transduction using the pLenti6-BTK(C4818)-GFP-CHYSEL-mCherry sensor construct described before. Lentiviral particles were produced in HEK293FT cells (Invitrogen R70007) by co-transfection of 500 ng pLenti6-BTK-GFP-Ires-RFP or pLenti6-IKZF3-GFP-Ires-RFP, 500 ng delta8.71 and 200 ng pVSVG diluted in 100 μl OptiMEM serum free medium (Invitrogen #11058-021) that was mixed after 5 min preincubation with 3 μl of Lipofectamine2000 (Invitrogen #11668-019) in 97 μl OptiMEM serum free medium. The mix was incubated for another 20 min at RT and then added to 1 ml of a freshly prepared suspension of HEK293FT cells in a well of a 6-well plate (concentration 1.2×10^6 cells/ml). 1 day after transfection, the medium was replaced with 1.5 ml of complete growth medium (DMEM high Glucose+10% FCS+1% L-Glutamine+1% NEAA+1% NaPyr.). 48 h post transfection supernatant containing viral transducing particles was collected and frozen at −80° C.
Two days before transduction with viral particles 1×10^5 HEK293A cells (Invitrogen R7057) were seeded in 2 ml growth medium in a well of a 6-well plate. Infection was performed with 90 μl of collected supernatant containing viral transducing particles in 1 ml medium including 8 μg/ml polybrene. 24 h post infection, stably transfected cells were selected with blasticidin at a concentration of 8 μg/ml.

Compound	DC50	BTK (C481S) Amax
Cc1ccc(C(=O)N(C)CCCCCNCc2ccc(-c3cc4c(-c5cc(F)cc(NC(=O)c6ccc(C(C)(C)O)cc6F)c5C)ncnc4[nH]3)cc2)cc1N1CCC(=O)NC1=O [Compound 30, 3-(2,4-Dioxotetrahydropyrimidin-1(2H)-yl)-N-(5-((4-(4-(5-fluoro-3-(2-fluoro-4-(2-hydroxypropan-2-yl)benzamido)-2-methylphenyl)-7H-pyrrolo[2,3-d]pyrimidin-6-yl)benzyl)amino)pentyl)-N,4-dimethylbenzamide]	8.18 nM	3.1%
COc1ccc(C(=O)N2CCC3(CCN(CCc4ccc(-c5cc6c(-c7cc(F)cc(NC(=O)c8ccc(C(C)(C)O)cc8F)c7C)ncnc6[nH]5)cc4)CC3)CC2)cc1N1CCC(=O)NC1=O [Compound 31, N-(3-(6-(4-(2-(9-(3-(2,4-Dioxotetrahydropyrimidin-1(2H)-yl)-4-methoxybenzoyl)-3,9-diazaspiro[5.5]undecan-3-yl)ethyl)phenyl)-7H-pyrrolo[2,3-d]pyrimidin-4-yl)-5-fluoro-2-methylphenyl)-2-fluoro-4-(2-hydroxypropan-2-yl)benzamide]	1.21 nM	3.0%
COc1ccc(C(=O)N2CCC(OC3CCN(CCc4ccc(-c5cc6c(-c7cc(F)cc(NC(=O)c8ccc(C(C)(C)O)cc8F)c7C)ncnc6[nH]5)cc4)CC3)CC2)cc1N1CCC(=O)NC1=O [Compound 34, N-(3-(6-(4-(2-(4-((1-(3-(2,4-Dioxotetrahydropyrimidin-1(2H)-yl)-4-methoxybenzoyl)piperidin-4-yl)oxyl)piperidin-1-yl)ethyl)phenyl)-7H-pyrrolo[2,3-d]pyrimidin-4-yl)-5-fluoro-2-methylphenyl)-2-fluoro-4-(2-hydroxypropan-2-yl)benzamide]	1.94 nM	1.6%
COc1ccc(C(=O)N2CCN(CCCCNCc3ccc(-c4cc5c(-c6cc(F)cc(NC(=O)c7ccc(C(C)(C)O)cc7F)c6C)ncnc5[nH]4)cc3)CC2)cc1N1CCC(=O)NC1=O [Compound 40, N-(3-(6-(4-(((4-(4-(3-(2,4-dioxotetrahydropyrimidin-1(2H)-yl)-4-methoxybenzoyl)piperazin-1-yl)butyl)amino)methyl)phenyl)-7H-pyrrolo[2,3-d]pyrimidin-4-yl)-5-fluoro-2-methylphenyl)-2-fluoro-4-(2-hydroxypropan-2-yl)benzamide]	3.03 nM	2.9%
Cc1c(NC(=O)c2ccc(C(C)(C)O)cc2F)cc(F)cc1-c1ncnc2[nH]c(-c3ccc(CCN4CCC5(CC4)CCN(C(=O)c4ccc(F)c(N6CCC(=O)NC6=O)c4)CC5)cc3)cc12 [Compound 47, N-(3-(6-(4-(2-(9-(3-(2,4-dioxotetrahydropyrimidin-1(2H)-yl)-4-fluorobenzoyl)-3,9-diazaspiro[5.5]undecan-3-yl)ethyl)phenyl)-7H-pyrrolo[2,3-d]pyrimidin-4-yl)-5-fluoro-2-methylphenyl)-2-fluoro-4-(2-hydroxypropan-2-yl)benzamide]	0.72 nM	2.4%
